{"source": "patent US4761405A", "about": "“Antagonists of specific excitatory amino acid neurotransmitter receptors having increased potency” (priority 1987, dated 1988)", "origin": "cited, not measured here", "key": {"[1]": {"test_system": "audiogenically-induced seizures", "details": "i.c.v. and i.v.; genetically susceptible mice; cited from earlier work"}, "[2]": {"test_system": "photically-induced myoclonus", "details": "i.v.; baboon; cited from earlier work"}, "[3]": {"test_system": "electroshock-induced seizures", "details": "mice; cited from earlier work"}, "[4]": {"test_system": "chemically-induced seizures", "details": "rodents; cited from earlier work"}, "ischemic brain damage": {"test_system": "ischemic brain damage", "details": "intrahippocampally; rodent carotid artery occlusion model; cited from earlier work"}, "[5]": {"test_system": "neurotoxic and convulsive actions of NMDA, IBO and Quin", "details": "in vivo; cited from earlier work"}}, "data": [{"smiles": "N[C@H](CCCCCP(=O)(O)O)C(=O)O", "note": "[AP7, D(-)-2-amini-7-phosphonoheptanoic acid]", "values": [{"measurement": "Protection against audiogenically-induced seizures", "setting": "[1]", "value": "protects against audiogenically-induced seizures"}, {"measurement": "Effect on photically-induced myoclonus", "setting": "[2]", "value": "suppresses photically-induced myoclonus"}, {"measurement": "Effect on threshold current for electroshock-induced seizures", "setting": "[3]", "value": "increased threshold current for electroshock-induced seizures"}, {"measurement": "Effect on chemically-induced seizures", "setting": "[4]", "value": "prevents chemically-induced seizures"}, {"measurement": "Effect on ischemic brain damage", "setting": "ischemic brain damage", "value": "markedly reduce or eliminate ischemic brain damage"}, {"measurement": "Effect on neurotoxic and convulsive actions of NMDA, IBO and Quin (but not KA)", "setting": "[5]", "value": "interferring with the neurotoxic and convulsive actions of NMDA, the exogenous excitotoxin, IBO, and the endogenous excitotoxin Quin (but not KA)"}]}]}
